Data reported in patent US20200368322A1, “METHODS OF IDENTIFYING AND USING AGENTS FOR TREATING DISEASES ASSOCIATED WITH INTESTINAL BARRIER DYSFUNCTION” (Yeda Research and Development Co. Ltd., priority 2018, published 2020).
Entries after “also recorded” stand apart in the source; their conditions may differ. No end group written: not given here.

Tests used:
[1] = test system: tight junctions of Caco2 cells; assay: Caco2 tight junction morphology (cingulin or ZO-1 staining, tortuosity); type: cell-based, human; conditions: for tight junction distortion caused by LPS: 10 mM taurine, 1 mM tryptamine, 10 mM L-homo-serine, in combination with LPS; for tight junction morphology: 10 mM acetyl-proline, 1 mM putrescine, 10 mM histamine, 5 mM spermine; for tight junction disruption phenotype (type 1 zipper-like, type 2 flower-like): known IBD mediators; for tight junctions morphology (cingulin): 50 ng/ml TNFa, 30 ng/ml IL1-b, 100 ng/ml LPS
Experimental: (§1) CaCo-2 cells were purchased from ATCC. Cells were routinely grown in regular tissue culture medium (DMEM, 10% FCS, penicillin/streptomycin, GlutaMAX). For experiments with differing glucose concentrations, cells were routinely cultured in low-glucose DMEM (1 g/l glucose). Cells were seeded onto 96-well glass-bottom plates coated with either fibronectin or collagen 70 000 cells/well and allowed to grow for 24 hours to form confluent monolayer before indicated treatments.
(§2) For high resolution images of manually selected representative fields, a DeltaVision wide field fluorescent microscope (GE Healthcare) equipped with 40×UPlanFLN or 60×/1.42 PlanApo N oil objective (Olympus) was used. For multi-well plate scanning, the following automated imaging stations were used: DeltaVision microscope with plate scanning regiment, Hermes imaging station (IDEA bio-Medical) or ImagExpress microXL imaging station (Molecular Devices) equipped by 40× air objectives. In all cases in order to cover the curvature of apical surface of epithelial monolayer 5 μm thick z-stack was acquired around the tight junction plane (identified by best focus algorithm) and resulting image was generated as a maximum projection of all optical sections.
(§3) Cell images were segmented using Morphological Segmentation ImageJ plug-in and junction tortuosity was calculated as a ratio between junction length and Euclidian distance between its ends.

[2] = test system: focal adhesions of Caco2 cells; assay: Caco2 cell-matrix focal adhesions (paxillin staining); type: cell-based, human; conditions: for focal adhesions size vs control non treated cells / enlargement of focal adhesions caused by LPS: 1 mM tryptamine, 10 mM L-homo-serine; for enlargement of focal adhesions caused by LPS: with LPS; for focal adhesions size: 10 mM acetyl-proline, 1 mM putrescine, 10 mM histamine, 5 mM spermine
Experimental: as §1, §2

[3] = test system: Caco2 cells; assay: Traction force microscopy; type: cell-based, human; conditions: Caco2 islands on polyacrylamide hydrogels, 24 hours treatment
Experimental: SoftTrac 6 well plates with pre-made collagen coated 12 kPa hydrogels containing embedded 0.2 μm fluorescent beads were purchased from Matrigen. 200,000 cells per well were plated and allowed to grow for 24 hours to form epithelial islands, treated with the indicated metabolite for another 24 hours and live-imaged using DeltaVision microscope equipped with environmental chamber. After acquisition of cell and fluorescent bead images in steady state conditions, cells were detached with trypsin and imaging of beads was repeated in a relaxed state. Displacement map generation and force calculations were performed using MatLab script described in Butler et al. Am J Physiol Cell Physiol. 2002.

[4] = test system: tight junctions of Caco2 cells; assay: Human secreted molecules library screen for tight junction modulators; type: cell-based; conditions: Caco2, 24 hours; ng/ml: TNFa 50, Il-15 25, CCL-20 50, CCL-23 50, FGF-1 25, FGF-10 100, BMP-10 50, UTS-2 10, UCN-1 20, EPO 10, UCN-3 20, IL-21 30, CCL-3 40, TIMP-2 100, FasLG 10
Experimental: as §1, §3
A protein library, consisting of 295 human secreted proteins was used for identification of potential modulators of the barrier function of human intestinal epithelial cells.

N[C@@H](CCO)C(=O)O [L-homoserine]
effect on tight junctions in metabolite screen ([1]; Caco2 cells): Stabilization | tight junction distortion caused by LPS ([1]; Caco2 cells): abolish tight junction distortion caused by LPS treatment alone | focal adhesions size vs control non treated cells [2]: reduction in focal adhesions size | enlargement of focal adhesions caused by LPS [2]: prevent enlargement focal adhesions caused by LPS treatment

CC(=O)N1CCC[C@H]1C(=O)O [N-acetylproline]
effect on tight junctions in metabolite screen ([1]; Caco2 cells): Disruption | tight junction morphology ([1]; Caco2 cells): distortion of tight junction morphology | focal adhesions size [2]: increase of focal adhesions size

Cc1ccc2c(c1)C(=O)C1(O)CCN(c3ccccc3)C1=N2 (stereo not shown) [blebbistatin, reference compound]
forces applied to the substrate (cell contractility) [3]: cause cell relaxation | disruptive effect of LPS and histamine on tight junctions ([1]; Caco2 cells, co-treatment with 20 μM blebbistatin): abolishes disruptive effect of LPS and histamine on tight junctions | focal adhesions enlarged by LPS or histamine ([2]; co-treatment with 20 μM blebbistatin): reduction of focal adhesions

NCCCNCCCCNCCCN [spermine]
effect on tight junctions in metabolite screen ([1]; Caco2 cells): Disruption | tight junction disruption phenotype (type 1 zipper-like, type 2 flower-like) ([1]; Caco2 cells): type 2 | tight junction morphology ([1]; Caco2 cells): distortion of tight junction morphology | tight junction phenotype in combination with LPS ([1]; Caco2 cells, type 2 disruptor plus LPS): double effect | focal adhesions size [2]: increase of focal adhesions size

NCCc1c[nH]c2ccccc12 [tryptamine]
forces applied to the substrate (cell contractility) [3]: cause cell relaxation | recovery of TJ structure on replacement of disruptors with stabilizer ([1]; CaCo2 cells pretreated with LPS, histamine or putrescine, even in the presence of the disruptors): full recovery of TJ structure | effect on tight junctions in metabolite screen ([1]; Caco2 cells): Stabilization | tight junction distortion caused by LPS ([1]; Caco2 cells): abolish tight junction distortion caused by LPS treatment alone | disrupting activity of dysbiotic fecal extract ([1]; Caco2 cells, extract combined with 1 mM tryptamine or fecal extract from healthy animals): neutralized | focal adhesions size vs control non treated cells [2]: reduction in focal adhesions size | enlargement of focal adhesions caused by LPS [2]: prevent enlargement focal adhesions caused by LPS treatment

Chemokine ligand 20 [CCL-20]
TJ morphology (cingulin) in secreted molecules screen [4]: changes in TJ morphology similar to previously observed upon treatment with known pro-inflammatory mediators

Fibroblast growth factor 1 [FGF-1]
TJ morphology (cingulin) in secreted molecules screen [4]: changes in TJ morphology similar to previously observed upon treatment with known pro-inflammatory mediators

IL1-b: cytokine, known pro-inflammatory IBD mediator
tight junctions morphology (cingulin) ([1]; Caco2 cells): significant alteration in tight junctions morphology

Interleukin-15 [Il-15]
TJ morphology (cingulin) in secreted molecules screen [4]: changes in TJ morphology similar to previously observed upon treatment with known pro-inflammatory mediators

Interleukin-21 [IL-21]
TJ morphology (cingulin) in secreted molecules screen [4]: improvement of TJ morphology in comparison to non-treated control | distortion of tight junctions on co-treatment of stabilizer with disruptor ([1]; Caco2 cells, cingulin): abolished distortion of tight junctions observed in the treatment with disruptors alone | TJ tortuosity on co-treatment of disruptor with stabilizer ([1]; Caco2 cells, N≥200): reduces tortuosity to the level of untreated control | enlargement of focal adhesions on co-treatment with disruptor ([2]; paxilin): prevents enlargement of focal adhesions caused by treatments with disruptors only

TNFa
TJ morphology (cingulin) in secreted molecules screen [4]: changes in TJ morphology similar to previously observed upon treatment with known pro-inflammatory mediators | tight junction disruption phenotype (type 1 zipper-like, type 2 flower-like) ([1]; Caco2 cells): type 1 | tight junctions morphology (cingulin) ([1]; Caco2 cells): significant alteration in tight junctions morphology

Tissue metalloprotease inhibitor 2 [TIMP-2]
TJ morphology (cingulin) in secreted molecules screen [4]: improvement of TJ morphology in comparison to non-treated control

Urocortin 1 (DNPSLSIDLTFHLLRTLLELARTQSQRERAEQNRIIFDSV; ends and bridges not checked; UniProt P55089 83-122, looked up) [UCN-1]
TJ morphology (cingulin) in secreted molecules screen [4]: changes in TJ morphology similar to previously observed upon treatment with known pro-inflammatory mediators

Urocortin 3 (FTLSLDVPTNIMNLLFNIAKAKNLRAQAAANAHLMAQI; ends and bridges not checked; UniProt Q969E3 120-157, looked up) [UCN-3]
TJ morphology (cingulin) in secreted molecules screen [4]: changes in TJ morphology similar to previously observed upon treatment with known pro-inflammatory mediators

Urotensin 2 (ETPDCFWKYCV; ends and bridges not checked; cysteine pairing not given here; UniProt O95399 114-124, looked up) [UTS-2]
TJ morphology (cingulin) in secreted molecules screen [4]: changes in TJ morphology similar to previously observed upon treatment with known pro-inflammatory mediators

B1: Fibroblast growth factor 10 (protein, UniProt O15520 38-208, looked up)
Fibroblast growth factor 10: QALGQDMVSPEATNSSSSSFSSPSSAGRHVRSYNHLQGDVRWRKLFSFTKYFLKIEKNGKVSGTKKENCPYSILEITSVEIGVVAVKAINSNYYLAMNKKGKLYGSKEFNNDCKLKERIEENGYNTYASFNWQHNGRQMYVALNGKGAPRRGQKTRRKNTSAHFLPMVVHS
TJ morphology (cingulin) in secreted molecules screen [4]: changes in TJ morphology similar to previously observed upon treatment with known pro-inflammatory mediators

B2: Chemokine ligand 3 (protein, UniProt P10147 24-92, looked up)
C-C motif chemokine 3: SLAADTPTACCFSYTSRQIPQNFIADYFETSSQCSKPGVIFLTKRSRQVCADPSEEWVQKYVSDLELSA
TJ morphology (cingulin) in secreted molecules screen [4]: improvement of TJ morphology in comparison to non-treated control

B3: Fas ligand (protein, UniProt P48023 130-281, looked up)
Tumor necrosis factor ligand …: QIGHPSPPPEKKELRKVAHLTGKSNSRSMPLEWEDTYGIVLLSGVKYKKGGLVINETGLYFVYSKVYFRGQSCNNLPLSHKVYMRNSKYPQDLVMMEGKMMSYCTTGQMWARSSYLGAVFNLTSADHLYVNVSELSLVNFEESQTFFGLYKL
TJ morphology (cingulin) in secreted molecules screen [4]: improvement of TJ morphology in comparison to non-treated control

B4: Bone morphogenetic protein 10 (protein, UniProt O95393 317-424, looked up)
Bone morphogenetic protein 10: NAKGNYCKRTPLYIDFKEIGWDSWIIAPPGYEAYECRGVCNYPLAEHLTPTKHAIIQALVHLKNSQKASKACCVPTKLEPISILYLDKGVVTYKFKYEGMAVSECGCR
TJ morphology (cingulin) in secreted molecules screen [4]: changes in TJ morphology similar to previously observed upon treatment with known pro-inflammatory mediators

B5: IL-22: human non-inflammatory cytokine (protein, UniProt Q9GZX6 34-179, looked up)
Interleukin-22: APISSHCRLDKSNFQQPYITNRTFMLAKEASLADNNTDVRLIGEKLFHGVSMSERCYLMKQVLNFTLEEVLFPQSDRFQPYMQEVVPFLARLSNRLSTCHIEGDDLHIQRNVQKLKDTVKKLGESGEIKAIGELDLLFMSLRNACI
tight junction morphology on co-treatment with pro-inflammatory agents ([1]; Caco2 cells, 100 ng/ml IL-22 plus TNFa, IL1-b or LPS): blocked; also recorded: completely restored normal tight junction morphology

B6: Chemokine ligand 23 (protein, UniProt P55773 22-120, looked up)
C-C motif chemokine 23: RVTKDAETEFMMSKLPLENPVLLDRFHATSADCCISYTPRSIPCSLLESYFETNSECSKPGVIFLTKKGRRFCANPSDKQVQVCMRMLKLDTRIKTRKN
TJ morphology (cingulin) in secreted molecules screen [4]: changes in TJ morphology similar to previously observed upon treatment with known pro-inflammatory mediators
